Measured values as given in article PMC6271780, “Determination of Bioactive Components in Chinese Herbal Formulae and Pharmacokinetics of Rhein in Rats by UPLC-MS/MS” (Molecules, 2014).

What was measured:
[1] = Comparative pharmacokinetics of rhein in rats after oral rhein, rhubarb or SHXXT (plasma, UPLC-MS/MS); assay type: in vivo, Sprague-Dawley rats
Text: All animal experimental protocols were reviewed and approved by the Institutional Animal Care and Use Committee (IACUC number: 1011202) of National Yang-Ming University. Male specific pathogen-free Sprague-Dawley rats were obtained from the Laboratory Animal Center of the National Yang-Ming University, Taipei, Taiwan. The animals had free access to food (laboratory rodent diet 5P14, PMI Feeds, Richmond, IN, USA) and water. For pharmacokinetic study, Sprague-Dawley rats weighing 220 ± 20 g were anesthetized with pentobarbital (50 mg/kg, i.p.) for cannulation. A polyethylene tube (PE50) was implanted into the left carotid artery for blood sampling. The cannula was exteriorized, fixed in the dorsal region of the neck. Patency of the tube was maintained by flushing with heparinized saline (20 IU/mL). After surgery, the rats were kept in cages individually and allowed to recover for one day. The dose of herbal formula for translation from human to animal is recommended by the US Food and Drug Administration guidelines as the following conversion equation : Human equivalent dose (HED, mg/kg) = animal dose (mg/kg) × (animal Km/human Km). Study on pharmacokinetics of rhein at 50, 100, and 200 mg in human (60 kg in adults) has been investigated, and therefore, rhein at 11.9 mg/kg was studied in this study according to the dose translation equation. Briefly, the pure compound rhein, the rhubarb extract, and the SHXXT formula suspended in water at doses of 11.9 mg/kg, 5.2 g/kg, and 5 g/kg were individually administered to rats by oral gavage. The doses of rhubarb extract and SHXXT extract were equivalent to rhein administration dose of 11.9 mg/kg. About 200 µL of blood samples was withdrawn from the cannula implanted in the carotid artery and placed into a heparin-rinsed vial at 0, 15, 30, 45, 60, 90, 120, 150, 180, 240, 300 and 360 min. The method of plasma sample preparation was slightly modified from the previous study. For quantitative analysis, the plasma sample (50 µL) was vortex-mixed with acetonitrile (100 µL) for protein precipitation. Data from these samples were used to construct the pharmacokinetic curve of rhein. The plasma sample was diluted by blank plasma sample at an appropriate ratio before analysis if the rhein concentration was excess 2500 ng/mL. Pharmacokinetic calculations were performed on each individual set of data using the pharmacokinetic software WinNonlin Standard Edition, version 1.1 (Pharsight Corp., Mountain View, CA, USA) by noncompartmental methods.

[2] = design: method as in PMID 21945452; settings: Chinese healthy subjects, single oral administration, range 50–200 mg; cited from earlier work
[3] = design: method as in PMID 19737807; settings: after SHXXT; cited from earlier work
[4] = design: method as in PMID 24214833; settings: cited from earlier work; for detection in rat plasma, decoction group: after oral administration of SHXXT decoction; for detection in rat plasma, maceration group: after oral administration of SHXXT maceration
[5] = after oral administration of SHXXT
[6] = male, Sprague-Dawley, po, rhein in rat plasma, rhein 11.9 mg/kg, rhubarb 5.2 g/kg or SHXXT 5 g/kg (each equivalent to rhein 11.9 mg/kg), n = 6, mean ± SD
[7] = rhein in rat plasma, p.o., rhein 11.9 mg/kg, rhubarb 5.2 g/kg or SHXXT 5 g/kg (each equivalent to rhein 11.9 mg/kg), n = 6, mean ± SD

| free (unconjugated) form detected in rat plasma [1, 5] | SMILES | detection in rat plasma, decoction group [4] | detection in rat plasma, maceration group [4] | other results |
| --- | --- | --- | --- | --- |
| existed in the free form | O=C(O)c1cc(O)c2c(c1)C(=O)c1cccc(O)c1C2=O [Rhein, 4,5-dihydroxy-9,10-dioxoanthracene-2-carboxylic acid] | – | – | MRT ([1]; male, Sprague-Dawley, po, rhein in rat plasma, p.o., rhein 11.9 mg/kg, rhubarb 5.2 g/kg or SHXXT 5 g/kg (each equivalent to rhein 11.9 mg/kg), n = 6, mean ± SD, read-out: MRT (mean residence time) (converted)): 1.87 h; half-life ([1]; male, Sprague-Dawley, po, rhein in rat plasma, p.o., rhein 11.9 mg/kg, rhubarb 5.2 g/kg or SHXXT 5 g/kg (each equivalent to rhein 11.9 mg/kg), n = 6, mean ± SD, read-out: T1/2 (elimination half-life)): 2.4 ± 0.287 h; AUC [1, 6]: 3130 ng·h/mL; Cmax [1, 6]: 2450 ± 550 ng/mL; Tmax [1, 6]: 0.417 h; CL (total body clearance) [1, 7]: 58 ± 7.89 mL/min/kg; Vss (volume of distribution) [1, 7]: 12.2 ± 2.10 L/kg; dose linearity of pharmacokinetics [2]: linear pharmacokinetics |
| not detected | O=c1cc(-c2ccccc2)oc2cc(O)c(O)c(O)c12 [baicalein] | – | – | forms determined in serum [3]: only the conjugated metabolites |
| not detected | O=C(O)[C@H]1O[C@@H](Oc2cc3oc(-c4ccccc4)cc(=O)c3c(O)c2O)[C@H](O)[C@@H](O)[C@@H]1O [baicalin] | – | – | – |

The next lines start with the compound.

| SMILES | free (unconjugated) form detected in rat plasma [1, 5] | detection in rat plasma, decoction group [4] | detection in rat plasma, maceration group [4] | other results |
| --- | --- | --- | --- | --- |
| COc1ccc2cc3[n+](cc2c1OC)CCc1cc2c(cc1-3)OCO2 [berberine] | not detected | detected | absent | – |
| c1c2c(cc3c1OCO3)-c1cc3ccc4c(c3c[n+]1CC2)OCO4 [coptisine] | – | detected | absent | – |
| Cc1cc(O)c2c(c1)C(=O)c1cc(O)cc(O)c1C2=O [emodin] | not detected | – | – | forms determined in serum [3]: only the conjugated metabolites |
| COc1cc2c(cc1O)CC[n+]1cc3c(OC)c(OC)ccc3cc1-2 [jatrorrhizine] | – | detected | absent | – |
| COc1cc2c(cc1OC)-c1cc3ccc(OC)c(OC)c3c[n+]1CC2 [palmatine] | – | detected | absent | free (unconjugated) form detected in rat plasma ([1]; rat, in vivo, po): not detected |
